From patent publication US20260125346A1, “Isoquinolinone Derivatives and 4H-Quinolizinone Derivatives and Pharmaceutical Compositions Thereof for the Treatment of Disease” (BeOne Medicines I GmbH, priority 2023, published 2026)

Legend:
[1] = target: PI3Kα (p110[H1047R]/p85) kinase (Homo sapiens, UniProt P42336, H1047R); test: PI3Kα (p110[H1047R]/p85) kinase ADP-Glo Assay; assay type: biochemical; conditions: 25 uM ATP
Method in brief: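 PI3Kα H1047R/p85 pre-incubated 30 min at room temperature with PI(4,5)P2:PS substrate ([…]) and compound ([…]) in HEPES pH 7.5 buffer with MgCl2; ATP ([…]) then added for 120 min. ADP quantified by ADP-Glo luminescence; IC50 from four-parameter logistic fit.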

[2] = tested on: WT cell line SK-BR-3; test: Phospho-AKT (Ser473) Inhibition Assay (HTRF), SK-BR-3; assay type: cell-based; conditions: Homo sapiens; SK-BR-3, 1 hour treatment; read-out: p-AKT Inhibition assay (S473) IC50 SK-BR-3
Method in brief: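 SK-BR-3 (PI3Kα WT) cells seeded overnight in MEM with insulin, then treated 1 h with 11-point 1:3 dilutions (10 μM to 0.1 nM, 0.1% DMSO). Lysates read for phospho-AKT Ser473 by HTRF after 4 h antibody incubation at room temperature. IC50 from 4-parameter fit, % inhibition normalized to DMSO (max) and 10 μM GDC0077 (min).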

[3] = tested on: WT cell line SK-BR-3; test: Cell Proliferation Assay (CellTiter-Glo), SK-BR-3; assay type: cell-based; conditions: Homo sapiens, 72 h; SK-BR-3, 3 days treatment
Method in brief: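 SK-BR-3 cells treated for 3 days with compound in a 9-point series, final concentrations 10 M to 1 nM in 0.1% DMSO. Viability read by CellTiter-Glo luminescence. Relative IC50 from percent inhibition versus medium-only and DMSO controls, four-parameter logistic fit.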

PI3Kα (p110[H1047R]/p85) kinase, sequence (P42336 whole entry H1047R): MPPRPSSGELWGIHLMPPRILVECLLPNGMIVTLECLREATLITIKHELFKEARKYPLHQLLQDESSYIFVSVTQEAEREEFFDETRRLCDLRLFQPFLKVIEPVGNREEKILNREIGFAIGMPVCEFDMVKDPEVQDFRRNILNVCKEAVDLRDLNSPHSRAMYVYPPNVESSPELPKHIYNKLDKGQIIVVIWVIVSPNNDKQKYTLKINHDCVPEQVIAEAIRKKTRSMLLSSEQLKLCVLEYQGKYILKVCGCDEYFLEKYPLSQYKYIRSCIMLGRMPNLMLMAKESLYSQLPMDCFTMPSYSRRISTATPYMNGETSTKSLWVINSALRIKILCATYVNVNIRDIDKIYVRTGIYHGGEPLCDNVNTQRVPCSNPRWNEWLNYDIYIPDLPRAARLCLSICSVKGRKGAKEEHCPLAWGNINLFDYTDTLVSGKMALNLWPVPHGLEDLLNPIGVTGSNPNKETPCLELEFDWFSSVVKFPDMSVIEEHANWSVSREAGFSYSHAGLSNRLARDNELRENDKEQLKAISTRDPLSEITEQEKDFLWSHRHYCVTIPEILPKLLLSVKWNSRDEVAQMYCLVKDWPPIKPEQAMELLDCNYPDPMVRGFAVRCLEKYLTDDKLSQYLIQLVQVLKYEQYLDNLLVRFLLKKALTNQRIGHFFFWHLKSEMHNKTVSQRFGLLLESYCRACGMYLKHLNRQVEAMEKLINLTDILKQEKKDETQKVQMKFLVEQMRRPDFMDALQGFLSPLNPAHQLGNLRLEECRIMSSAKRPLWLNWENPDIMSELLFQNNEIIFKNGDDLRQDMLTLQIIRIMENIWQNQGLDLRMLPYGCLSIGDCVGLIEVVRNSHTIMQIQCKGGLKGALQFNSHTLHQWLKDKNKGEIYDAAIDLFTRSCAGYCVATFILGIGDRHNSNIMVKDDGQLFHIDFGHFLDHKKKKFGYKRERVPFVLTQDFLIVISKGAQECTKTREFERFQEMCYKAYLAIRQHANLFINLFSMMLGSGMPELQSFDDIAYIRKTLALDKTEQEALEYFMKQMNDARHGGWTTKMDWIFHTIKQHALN
PI3Kα (p110[H1047R]/p85) kinase, sequence (P27986 whole entry partner): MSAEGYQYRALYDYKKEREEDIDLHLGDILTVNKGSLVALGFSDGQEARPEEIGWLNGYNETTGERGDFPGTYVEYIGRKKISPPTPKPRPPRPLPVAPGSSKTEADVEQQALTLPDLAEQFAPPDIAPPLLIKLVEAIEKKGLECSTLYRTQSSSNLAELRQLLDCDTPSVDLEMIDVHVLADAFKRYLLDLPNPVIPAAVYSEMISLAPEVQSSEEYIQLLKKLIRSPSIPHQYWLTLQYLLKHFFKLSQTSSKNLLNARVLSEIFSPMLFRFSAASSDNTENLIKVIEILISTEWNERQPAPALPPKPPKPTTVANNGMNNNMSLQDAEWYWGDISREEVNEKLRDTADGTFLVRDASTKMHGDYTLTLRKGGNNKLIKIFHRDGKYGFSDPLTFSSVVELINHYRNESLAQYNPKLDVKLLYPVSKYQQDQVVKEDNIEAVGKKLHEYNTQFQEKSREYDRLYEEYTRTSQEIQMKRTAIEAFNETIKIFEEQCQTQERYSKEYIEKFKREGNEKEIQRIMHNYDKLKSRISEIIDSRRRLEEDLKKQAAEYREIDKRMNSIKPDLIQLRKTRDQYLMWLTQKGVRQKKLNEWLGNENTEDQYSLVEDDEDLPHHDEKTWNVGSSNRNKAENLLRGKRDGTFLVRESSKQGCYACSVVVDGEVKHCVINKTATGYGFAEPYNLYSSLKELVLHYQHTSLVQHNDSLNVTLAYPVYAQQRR

In the case of `Cc1cc(C(C)Nc2cc3ccsc3cc2C(=O)O)c2cc(-c3ccccc3)n(C)c(=O)c2c1` (stereo not shown) [Example 47, 5-((1-(2,7-dimethyl-1-oxo-3-phenyl-1,2-dihydroisoquinolin-5-yl)ethyl)amino)benzo[b]thiophene-6-carboxylic acid], the IC50 [1] is reported as 0.525 µM, the “selectivity: WT/H1047R” value ([1]; ADP-Glo Assay IC50 ratio) is reported as 27.3 and the IC50 [2] is reported as > 10 µM. For the same compound, the IC50 [3] was > 10 µM.
